Test results: ChEMBL document CHEMBL1149512, “3-Aryl-4-hydroxyquinolin-2(1H)-one derivatives as type I fatty acid synthase inhibitors” (Bioorg Med Chem Lett, 2006)

Target: Fatty acid synthase (Homo sapiens, UniProt P49327)
Test: Inhibition of human FAS

Fatty acid synthase (Homo sapiens, UniProt P49327), sequence (P49327 whole entry): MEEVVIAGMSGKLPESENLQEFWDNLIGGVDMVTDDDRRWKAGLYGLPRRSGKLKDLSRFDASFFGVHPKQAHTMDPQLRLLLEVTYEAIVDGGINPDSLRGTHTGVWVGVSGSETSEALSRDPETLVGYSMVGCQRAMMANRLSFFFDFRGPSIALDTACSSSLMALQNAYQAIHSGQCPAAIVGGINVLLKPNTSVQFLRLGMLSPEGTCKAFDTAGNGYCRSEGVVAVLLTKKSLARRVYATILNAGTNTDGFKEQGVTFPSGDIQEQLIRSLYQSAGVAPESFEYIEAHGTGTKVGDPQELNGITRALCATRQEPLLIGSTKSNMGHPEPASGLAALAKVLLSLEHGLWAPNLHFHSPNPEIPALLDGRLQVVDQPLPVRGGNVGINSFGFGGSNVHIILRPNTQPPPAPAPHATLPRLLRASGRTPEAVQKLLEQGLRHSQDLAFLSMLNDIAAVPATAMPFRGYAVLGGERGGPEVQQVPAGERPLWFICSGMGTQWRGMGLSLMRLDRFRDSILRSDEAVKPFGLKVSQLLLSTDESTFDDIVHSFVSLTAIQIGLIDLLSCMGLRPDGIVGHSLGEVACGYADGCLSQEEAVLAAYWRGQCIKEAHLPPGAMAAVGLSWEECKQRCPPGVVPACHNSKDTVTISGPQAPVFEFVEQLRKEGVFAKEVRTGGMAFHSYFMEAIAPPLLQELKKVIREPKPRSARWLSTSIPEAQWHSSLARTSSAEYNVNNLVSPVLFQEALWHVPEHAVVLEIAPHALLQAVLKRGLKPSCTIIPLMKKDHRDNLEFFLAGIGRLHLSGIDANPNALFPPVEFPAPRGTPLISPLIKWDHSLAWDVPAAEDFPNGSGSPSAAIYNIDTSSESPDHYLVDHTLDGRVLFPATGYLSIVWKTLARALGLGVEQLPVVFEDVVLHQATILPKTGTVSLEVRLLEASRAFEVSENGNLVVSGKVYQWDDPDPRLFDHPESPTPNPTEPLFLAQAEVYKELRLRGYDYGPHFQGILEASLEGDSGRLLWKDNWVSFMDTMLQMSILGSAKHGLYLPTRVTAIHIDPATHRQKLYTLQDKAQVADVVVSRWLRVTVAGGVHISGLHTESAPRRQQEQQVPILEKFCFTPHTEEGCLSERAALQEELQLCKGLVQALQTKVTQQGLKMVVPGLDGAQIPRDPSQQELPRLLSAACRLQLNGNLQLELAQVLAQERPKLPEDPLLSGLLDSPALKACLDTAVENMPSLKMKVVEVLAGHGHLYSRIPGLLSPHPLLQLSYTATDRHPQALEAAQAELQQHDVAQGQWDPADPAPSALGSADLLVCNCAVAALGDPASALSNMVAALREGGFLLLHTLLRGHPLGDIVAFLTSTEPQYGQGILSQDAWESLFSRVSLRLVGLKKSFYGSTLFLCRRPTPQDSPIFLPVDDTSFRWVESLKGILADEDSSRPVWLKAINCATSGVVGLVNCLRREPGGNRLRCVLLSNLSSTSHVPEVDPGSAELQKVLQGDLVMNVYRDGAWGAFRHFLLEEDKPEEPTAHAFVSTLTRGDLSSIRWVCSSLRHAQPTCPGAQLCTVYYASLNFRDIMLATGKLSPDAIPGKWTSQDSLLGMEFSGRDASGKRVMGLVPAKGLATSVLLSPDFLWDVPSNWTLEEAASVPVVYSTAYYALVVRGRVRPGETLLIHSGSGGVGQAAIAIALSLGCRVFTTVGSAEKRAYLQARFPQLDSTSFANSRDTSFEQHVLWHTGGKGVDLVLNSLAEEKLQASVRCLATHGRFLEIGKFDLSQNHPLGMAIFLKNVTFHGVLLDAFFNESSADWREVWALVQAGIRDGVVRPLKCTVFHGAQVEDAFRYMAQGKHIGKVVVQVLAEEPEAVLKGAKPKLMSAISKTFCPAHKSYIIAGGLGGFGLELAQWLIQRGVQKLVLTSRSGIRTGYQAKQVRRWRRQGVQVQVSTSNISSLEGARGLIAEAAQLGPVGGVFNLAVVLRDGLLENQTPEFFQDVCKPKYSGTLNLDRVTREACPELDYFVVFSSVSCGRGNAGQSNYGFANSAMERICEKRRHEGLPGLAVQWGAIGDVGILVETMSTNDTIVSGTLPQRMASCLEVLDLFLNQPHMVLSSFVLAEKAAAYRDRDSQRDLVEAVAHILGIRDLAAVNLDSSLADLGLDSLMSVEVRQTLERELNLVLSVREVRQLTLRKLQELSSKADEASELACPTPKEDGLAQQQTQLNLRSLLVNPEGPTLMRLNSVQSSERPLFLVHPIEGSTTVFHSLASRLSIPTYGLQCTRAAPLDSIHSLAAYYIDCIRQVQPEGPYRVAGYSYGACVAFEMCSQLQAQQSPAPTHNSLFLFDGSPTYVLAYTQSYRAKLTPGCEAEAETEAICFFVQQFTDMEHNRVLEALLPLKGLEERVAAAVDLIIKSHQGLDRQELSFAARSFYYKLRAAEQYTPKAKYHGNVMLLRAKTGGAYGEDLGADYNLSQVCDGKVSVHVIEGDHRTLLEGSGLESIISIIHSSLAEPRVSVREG

Compound	IC50
CS(=O)(=O)c1cccc(-c2c(O)c3cc(C#N)c(Cl)cc3[nH]c2=O)c1	4160 nM
N#Cc1ccc2[nH]c(=O)c(-c3ccccc3)c(O)c2c1	1290 nM
O=c1[nH]c2ccc(C(F)(F)F)cc2c(O)c1-c1ccccc1	> 15000 nM
N#Cc1cc2c(N)c(-c3ccccc3)c(O)nc2cc1Cl	> 15000 nM
Cn1cc(-c2cccc(-c3c(O)c4cc(C#N)c(Cl)cc4[nH]c3=O)c2)cn1	734 nM
N#Cc1cc2c(O)c(-c3cccc(-c4ccc(F)c(F)c4)c3)c(=O)[nH]c2cc1Cl	68 nM
N#Cc1cc2c(O)c(-c3cccc(-c4csc5ccccc45)c3)c(=O)[nH]c2cc1Cl	101 nM
N#Cc1cc2c(O)c(-c3cccc(-c4ccc(F)cc4)c3)c(=O)[nH]c2cc1Cl	54 nM
COc1ccc(CNc2c(-c3ccccc3)c(=O)[nH]c3cc(Cl)c(C#N)cc23)cc1	> 15000 nM
O=c1[nH]c2ccc([N+](=O)[O-])cc2c(O)c1-c1ccccc1	1400 nM
N#Cc1cc2c(O)c(-c3cccc(-c4ccccc4)c3)c(=O)[nH]c2cc1Cl	52 nM
N#Cc1cc2c(Br)c(-c3ccccc3)c(O)nc2cc1Cl	> 15000 nM
CS(=O)(=O)c1ccc2[nH]c(=O)c(-c3ccccc3)c(O)c2c1	> 15000 nM

Now from value to compound:

IC50	Compound
136 nM	N#Cc1cc2c(O)c(-c3ccccc3)c(=O)[nH]c2cc1Cl
728 nM	N#Cc1cc2c(O)c(-c3cccc(-c4cc(F)cc(F)c4)c3)c(=O)[nH]c2cc1Cl
194 nM	N#Cc1cc2c(O)c(-c3cccc(-c4cccnc4)c3)c(=O)[nH]c2cc1Cl
402 nM	N#Cc1cc(Cl)c2[nH]c(=O)c(-c3ccccc3)c(O)c2c1
207 nM	O=c1[nH]c2cc(Cl)c([N+](=O)[O-])cc2c(O)c1-c1ccccc1
> 15000 nM	N#Cc1cc2c(C#N)c(-c3ccccc3)c(=O)[nH]c2cc1Cl
> 15000 nM	N#Cc1cc2c(Cl)c(-c3ccccc3)c(=O)[nH]c2cc1Cl
> 15000 nM	O=c1[nH]c2ccc(S(=O)(=O)C(F)(F)F)cc2c(O)c1-c1ccccc1
> 15000 nM	N#Cc1cc2c(NCc3ccccc3)c(-c3ccccc3)c(=O)[nH]c2cc1Cl
127 nM	N#Cc1cc2c(O)c(-c3cccc(-c4ccc5ccccc5c4)c3)c(=O)[nH]c2cc1Cl
19 nM	COc1ccccc1-c1cccc(-c2c(O)c3cc(C#N)c(Cl)cc3[nH]c2=O)c1

Target: Fatty acid synthase (Rattus norvegicus, UniProt P12785)
Test: Inhibition of rat FAS

Fatty acid synthase (Rattus norvegicus, UniProt P12785), sequence (P12785 whole entry): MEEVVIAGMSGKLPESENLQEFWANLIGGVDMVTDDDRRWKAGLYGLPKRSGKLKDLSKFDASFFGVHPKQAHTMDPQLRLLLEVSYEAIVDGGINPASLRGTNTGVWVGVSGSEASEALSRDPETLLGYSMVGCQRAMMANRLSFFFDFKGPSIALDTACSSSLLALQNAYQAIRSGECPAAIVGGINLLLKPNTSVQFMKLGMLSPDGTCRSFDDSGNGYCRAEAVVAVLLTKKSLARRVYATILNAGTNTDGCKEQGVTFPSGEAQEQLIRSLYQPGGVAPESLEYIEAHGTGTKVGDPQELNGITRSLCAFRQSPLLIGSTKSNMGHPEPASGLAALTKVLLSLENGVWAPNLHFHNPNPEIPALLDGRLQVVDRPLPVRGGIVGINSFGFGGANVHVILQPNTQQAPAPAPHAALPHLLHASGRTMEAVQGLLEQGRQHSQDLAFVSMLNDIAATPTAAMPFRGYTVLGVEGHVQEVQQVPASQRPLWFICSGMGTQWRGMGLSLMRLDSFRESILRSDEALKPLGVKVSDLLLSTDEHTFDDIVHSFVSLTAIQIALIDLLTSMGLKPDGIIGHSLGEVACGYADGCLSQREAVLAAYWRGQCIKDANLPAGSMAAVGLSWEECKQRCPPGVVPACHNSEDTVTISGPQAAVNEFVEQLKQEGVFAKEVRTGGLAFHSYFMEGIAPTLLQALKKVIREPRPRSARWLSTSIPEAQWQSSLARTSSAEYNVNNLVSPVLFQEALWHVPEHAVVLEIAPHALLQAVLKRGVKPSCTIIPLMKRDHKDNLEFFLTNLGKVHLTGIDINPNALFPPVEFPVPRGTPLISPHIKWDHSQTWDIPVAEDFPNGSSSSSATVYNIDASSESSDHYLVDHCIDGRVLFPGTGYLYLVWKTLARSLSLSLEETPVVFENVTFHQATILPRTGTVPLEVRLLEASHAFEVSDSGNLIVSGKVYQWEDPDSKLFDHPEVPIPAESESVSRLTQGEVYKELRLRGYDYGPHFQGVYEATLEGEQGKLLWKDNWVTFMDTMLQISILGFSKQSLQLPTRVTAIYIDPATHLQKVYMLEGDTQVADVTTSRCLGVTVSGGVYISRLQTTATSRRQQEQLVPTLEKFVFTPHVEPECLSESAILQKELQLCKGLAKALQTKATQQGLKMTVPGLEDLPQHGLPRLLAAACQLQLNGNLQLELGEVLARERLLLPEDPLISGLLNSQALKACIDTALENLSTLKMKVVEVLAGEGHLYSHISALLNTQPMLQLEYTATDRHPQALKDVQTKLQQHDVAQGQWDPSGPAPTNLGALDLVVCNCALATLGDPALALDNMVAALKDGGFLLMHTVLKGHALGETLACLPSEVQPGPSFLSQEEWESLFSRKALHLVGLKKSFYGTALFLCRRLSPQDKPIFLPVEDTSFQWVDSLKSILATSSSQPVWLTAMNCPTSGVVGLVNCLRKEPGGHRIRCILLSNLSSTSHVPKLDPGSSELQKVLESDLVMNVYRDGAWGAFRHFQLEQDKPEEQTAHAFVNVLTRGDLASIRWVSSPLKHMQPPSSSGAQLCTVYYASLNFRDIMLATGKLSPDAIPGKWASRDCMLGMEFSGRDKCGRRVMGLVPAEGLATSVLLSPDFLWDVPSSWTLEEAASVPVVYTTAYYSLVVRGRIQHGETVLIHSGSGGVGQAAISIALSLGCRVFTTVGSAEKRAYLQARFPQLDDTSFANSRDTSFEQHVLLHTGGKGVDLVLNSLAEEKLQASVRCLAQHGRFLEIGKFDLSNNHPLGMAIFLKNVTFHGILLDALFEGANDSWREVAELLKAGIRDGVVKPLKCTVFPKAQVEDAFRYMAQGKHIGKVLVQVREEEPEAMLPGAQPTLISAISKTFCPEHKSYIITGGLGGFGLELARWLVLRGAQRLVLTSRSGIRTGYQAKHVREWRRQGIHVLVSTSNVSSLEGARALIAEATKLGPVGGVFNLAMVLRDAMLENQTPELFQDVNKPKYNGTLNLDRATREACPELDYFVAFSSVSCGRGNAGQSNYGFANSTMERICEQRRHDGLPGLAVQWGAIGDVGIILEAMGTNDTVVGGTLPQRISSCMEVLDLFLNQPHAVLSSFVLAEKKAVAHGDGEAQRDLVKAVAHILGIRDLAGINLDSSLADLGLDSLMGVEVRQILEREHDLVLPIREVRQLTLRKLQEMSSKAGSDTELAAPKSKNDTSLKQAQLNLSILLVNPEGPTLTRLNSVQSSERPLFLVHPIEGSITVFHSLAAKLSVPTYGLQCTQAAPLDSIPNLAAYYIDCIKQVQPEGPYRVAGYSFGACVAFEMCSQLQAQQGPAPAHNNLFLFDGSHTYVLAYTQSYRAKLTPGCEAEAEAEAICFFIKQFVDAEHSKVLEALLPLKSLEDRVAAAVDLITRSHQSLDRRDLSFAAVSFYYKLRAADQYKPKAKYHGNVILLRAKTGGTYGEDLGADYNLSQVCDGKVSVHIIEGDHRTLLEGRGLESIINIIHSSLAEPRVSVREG

Compound	IC50
O=c1[nH]c2ccccc2c(O)c1-c1ccccc1	> 15000 nM
O=c1[nH]c2cc(Cl)c([N+](=O)[O-])cc2c(O)c1-c1cccs1	700 nM
O=C(O)c1ccc2[nH]c(=O)c(-c3ccccc3)c(O)c2c1	> 15000 nM
O=c1[nH]c2cc(Cl)c([N+](=O)[O-])cc2c(O)c1-c1ccc(-c2ccccc2)cc1	122 nM
O=c1[nH]c2ccc(C(F)(F)F)cc2c(O)c1-c1ccccc1	> 15000 nM
O=c1[nH]c2cc(Cl)c([N+](=O)[O-])cc2c(O)c1-c1ccc(F)cc1F	173 nM
O=c1[nH]c2cc(Cl)c([N+](=O)[O-])cc2c(O)c1-c1cc(F)cc(F)c1	172 nM
Cc1cc(-c2c(O)c3cc([N+](=O)[O-])c(Cl)cc3[nH]c2=O)on1	3400 nM
O=c1[nH]c2cc(F)c([N+](=O)[O-])cc2c(O)c1-c1ccccc1	50 nM
O=c1[nH]c2ccc([N+](=O)[O-])cc2c(O)c1-c1ccccc1	550 nM
O=c1[nH]c2cc(Cl)c([N+](=O)[O-])cc2c(O)c1-c1ccc(OCc2ccccc2)cc1	86 nM
CS(=O)(=O)c1ccc2[nH]c(=O)c(-c3ccccc3)c(O)c2c1	> 15000 nM
O=c1[nH]c2c([N+](=O)[O-])cccc2c(O)c1-c1ccccc1	3000 nM

More lines, now with the values ahead:

IC50	Compound
> 15000 nM	O=c1cc(O)c2cc([N+](=O)[O-])ccc2[nH]1
134 nM	O=c1[nH]c2cc(Cl)c([N+](=O)[O-])cc2c(O)c1-c1cc(Cl)cc(Cl)c1
6000 nM	O=c1[nH]c2cc(Cl)c([N+](=O)[O-])cc2c(O)c1-c1ccc2ccccc2c1
73 nM	O=c1[nH]c2cc(Cl)c([N+](=O)[O-])cc2c(O)c1-c1ccccc1
443 nM	O=c1[nH]c2cc(Cl)c([N+](=O)[O-])cc2c(O)c1-c1ccc(Cl)cc1Cl
> 15000 nM	O=c1[nH]c2ccc(S(=O)(=O)C(F)(F)F)cc2c(O)c1-c1ccccc1
2600 nM	O=c1[nH]c2cc(Cl)c([N+](=O)[O-])cc2c(O)c1-c1nnn[nH]1
